These results are taken from BindingDB's records for doi:10.1021/jm801065q (Novartis Institutes For Biomedical Research, 2008).

Molecules are shown by their SMILES.

Test [1] can be described thus: Activity at CXCR4 in rat IR983F cells assessed as inhibition of CXCL12-induced cell migration.
Test [2] in a line: Activity at CXCR4 in human Jurkat T cells assessed as inhibition of CXCL12-induced cell migration.

`C1=C(CS/C(=N\C2CCCCC2)NC2CCCCC2)N2CCN=C2S1` [1,3-dicyclohexyl-2-((5,6-dihydroimidazo[2,1-b]thiazol-3-yl)methyl)isothiourea]: the IC50 was 29 nM in test [1] and 58 nM in test [2].

In general, IC50 refers to the concentration that inhibits the measured activity by half.
